Measurements taken from PMC6972889, “Structural insight into small molecule action on Frizzleds” (Nature Communications, 2020).
Structures can show the parent of a compound that is named as a salt.

Key:
[1] = target: T1, FZD6 (Nluc–FZD6; SNAP–FZD6; SNAP–FZD6–Rluc8; FLAG–FZD6–Nluc) (Homo sapiens, UniProt O60353); experiment: NanoBRET saturation binding, living SMO-knockout HEK293 cells; type: cell-based; conditions: Nluc–FZD6, 90 min, 37 °C; labelled compound
T1 construct: expressed in SMO-knockout HEK293 cells
T1 sequence (O60353 19-706): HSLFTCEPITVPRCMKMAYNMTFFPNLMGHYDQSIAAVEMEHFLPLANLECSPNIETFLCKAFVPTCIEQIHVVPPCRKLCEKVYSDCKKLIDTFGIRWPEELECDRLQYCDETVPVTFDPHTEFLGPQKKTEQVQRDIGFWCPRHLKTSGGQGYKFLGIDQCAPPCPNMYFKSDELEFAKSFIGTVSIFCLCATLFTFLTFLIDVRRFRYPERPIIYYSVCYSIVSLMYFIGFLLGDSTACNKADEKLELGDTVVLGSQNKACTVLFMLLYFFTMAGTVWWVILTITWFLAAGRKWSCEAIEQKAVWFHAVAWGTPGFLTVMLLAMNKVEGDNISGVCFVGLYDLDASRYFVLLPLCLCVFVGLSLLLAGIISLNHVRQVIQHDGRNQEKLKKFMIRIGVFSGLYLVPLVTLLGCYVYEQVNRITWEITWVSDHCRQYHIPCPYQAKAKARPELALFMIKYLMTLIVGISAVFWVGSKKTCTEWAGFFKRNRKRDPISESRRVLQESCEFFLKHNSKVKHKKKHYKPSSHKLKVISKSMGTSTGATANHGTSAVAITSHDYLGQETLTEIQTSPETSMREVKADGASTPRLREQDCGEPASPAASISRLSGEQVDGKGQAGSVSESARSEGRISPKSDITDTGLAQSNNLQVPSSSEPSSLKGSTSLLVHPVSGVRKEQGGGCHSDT

[2] = target: T2, FZD6–FlAsH–TFP (Homo sapiens, UniProt O60353, INS404FLNCCPGCCMEP); experiment: intramolecular FRET conformational probe in HEK293 cells; type: cell-based
T2 construct: from FZD6–GFP; expressed in HEK293 cells
T2 sequence (O60353 with tags, fused parts or gaps INS404FLNCCPGCCMEP): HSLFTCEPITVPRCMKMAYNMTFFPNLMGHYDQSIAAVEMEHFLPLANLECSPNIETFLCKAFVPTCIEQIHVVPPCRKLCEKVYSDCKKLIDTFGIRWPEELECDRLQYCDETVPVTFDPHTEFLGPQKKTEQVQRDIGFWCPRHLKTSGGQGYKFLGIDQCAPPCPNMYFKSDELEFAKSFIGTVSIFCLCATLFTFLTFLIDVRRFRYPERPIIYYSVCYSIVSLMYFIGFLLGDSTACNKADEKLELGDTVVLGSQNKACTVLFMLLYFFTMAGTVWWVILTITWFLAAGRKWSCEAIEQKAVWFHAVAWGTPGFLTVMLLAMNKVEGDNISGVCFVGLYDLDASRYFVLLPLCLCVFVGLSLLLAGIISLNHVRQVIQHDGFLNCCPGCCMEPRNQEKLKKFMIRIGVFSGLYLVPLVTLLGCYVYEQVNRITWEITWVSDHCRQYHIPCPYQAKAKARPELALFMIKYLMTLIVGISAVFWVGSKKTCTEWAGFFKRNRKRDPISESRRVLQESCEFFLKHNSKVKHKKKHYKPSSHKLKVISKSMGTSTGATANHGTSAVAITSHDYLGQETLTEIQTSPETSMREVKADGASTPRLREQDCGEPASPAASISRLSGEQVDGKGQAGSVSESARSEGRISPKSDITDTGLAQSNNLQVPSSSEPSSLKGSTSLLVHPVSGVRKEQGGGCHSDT

[3] = target: T3, FZD4 (FZD4–Nluc; SNAP–FZD4) (Homo sapiens, UniProt Q9ULV1); experiment: BRET Venus–mG13 recruitment to FZD4–Nluc; type: cell-based; conditions: negative control subtype
T3 construct: full-length receptor with C-terminal Nluc or N-terminal SNAP; expressed in HEK293-derived cells
T3 sequence (Q9ULV1 37-537): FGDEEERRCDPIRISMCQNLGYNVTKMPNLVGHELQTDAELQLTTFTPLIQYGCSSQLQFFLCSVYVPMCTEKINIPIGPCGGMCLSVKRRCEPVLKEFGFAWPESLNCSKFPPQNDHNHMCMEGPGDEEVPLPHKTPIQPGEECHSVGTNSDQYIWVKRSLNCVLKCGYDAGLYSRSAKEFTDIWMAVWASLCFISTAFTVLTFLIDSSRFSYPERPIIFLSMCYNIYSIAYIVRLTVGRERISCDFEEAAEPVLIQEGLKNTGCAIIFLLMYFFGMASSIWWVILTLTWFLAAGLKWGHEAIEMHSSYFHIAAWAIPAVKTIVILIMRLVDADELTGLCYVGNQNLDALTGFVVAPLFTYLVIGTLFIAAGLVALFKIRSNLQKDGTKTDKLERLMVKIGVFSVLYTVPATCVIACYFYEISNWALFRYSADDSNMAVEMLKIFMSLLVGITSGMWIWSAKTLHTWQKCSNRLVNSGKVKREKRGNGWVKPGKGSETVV

[4] = target: T1, FZD6 (Nluc–FZD6; SNAP–FZD6; SNAP–FZD6–Rluc8; FLAG–FZD6–Nluc); experiment: BRET Venus–mGsi recruitment in SMO-knockout HEK293 cells; type: cell-based; conditions: agonist; bell-shaped curve
[5] = target: T1, FZD6 (Nluc–FZD6; SNAP–FZD6; SNAP–FZD6–Rluc8; FLAG–FZD6–Nluc); experiment: NanoBRET competition binding, living SMO-knockout HEK293 cells; type: cell-based
[6] = target: T1, FZD6 (Nluc–FZD6; SNAP–FZD6; SNAP–FZD6–Rluc8; FLAG–FZD6–Nluc); experiment: BRET Venus–mGsi recruitment to SNAP–FZD6–Rluc8; type: cell-based; conditions: agonist; no bell shape
[7] = target: T4, SMO–Rluc8 (Mus musculus, UniProt P56726); experiment: BRET Venus–mGsi recruitment to SMO–Rluc8; type: cell-based; conditions: agonist; no bell shape
T4 construct: full-length receptor with C-terminal Rluc8; expressed in HEK293-derived cells

[8] = target: T5, FZD6–FlAsH–TFP (human) (UniProt O60353)
T5 sequence (chain, FlAsH (fluorescein arsenical hairpin binder) labelled on the FlAsH-binding motif): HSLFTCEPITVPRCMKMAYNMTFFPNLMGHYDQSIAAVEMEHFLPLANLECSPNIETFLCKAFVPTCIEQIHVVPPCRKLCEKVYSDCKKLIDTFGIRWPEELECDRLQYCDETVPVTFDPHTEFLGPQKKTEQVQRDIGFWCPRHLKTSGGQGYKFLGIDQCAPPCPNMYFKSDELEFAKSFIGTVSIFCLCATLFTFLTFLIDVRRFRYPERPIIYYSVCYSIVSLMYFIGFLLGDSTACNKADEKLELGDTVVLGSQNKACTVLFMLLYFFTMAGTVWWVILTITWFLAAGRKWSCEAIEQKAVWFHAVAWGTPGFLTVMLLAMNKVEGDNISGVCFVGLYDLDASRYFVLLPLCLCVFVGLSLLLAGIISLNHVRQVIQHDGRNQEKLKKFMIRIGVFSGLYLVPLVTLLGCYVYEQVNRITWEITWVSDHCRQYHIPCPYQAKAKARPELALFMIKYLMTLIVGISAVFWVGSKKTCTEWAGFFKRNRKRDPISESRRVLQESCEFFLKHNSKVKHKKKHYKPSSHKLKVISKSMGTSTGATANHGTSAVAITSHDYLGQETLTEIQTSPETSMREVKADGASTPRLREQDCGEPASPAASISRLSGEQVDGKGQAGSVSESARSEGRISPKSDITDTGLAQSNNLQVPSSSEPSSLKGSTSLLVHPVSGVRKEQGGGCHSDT

T4 sequence (P56726 33-793): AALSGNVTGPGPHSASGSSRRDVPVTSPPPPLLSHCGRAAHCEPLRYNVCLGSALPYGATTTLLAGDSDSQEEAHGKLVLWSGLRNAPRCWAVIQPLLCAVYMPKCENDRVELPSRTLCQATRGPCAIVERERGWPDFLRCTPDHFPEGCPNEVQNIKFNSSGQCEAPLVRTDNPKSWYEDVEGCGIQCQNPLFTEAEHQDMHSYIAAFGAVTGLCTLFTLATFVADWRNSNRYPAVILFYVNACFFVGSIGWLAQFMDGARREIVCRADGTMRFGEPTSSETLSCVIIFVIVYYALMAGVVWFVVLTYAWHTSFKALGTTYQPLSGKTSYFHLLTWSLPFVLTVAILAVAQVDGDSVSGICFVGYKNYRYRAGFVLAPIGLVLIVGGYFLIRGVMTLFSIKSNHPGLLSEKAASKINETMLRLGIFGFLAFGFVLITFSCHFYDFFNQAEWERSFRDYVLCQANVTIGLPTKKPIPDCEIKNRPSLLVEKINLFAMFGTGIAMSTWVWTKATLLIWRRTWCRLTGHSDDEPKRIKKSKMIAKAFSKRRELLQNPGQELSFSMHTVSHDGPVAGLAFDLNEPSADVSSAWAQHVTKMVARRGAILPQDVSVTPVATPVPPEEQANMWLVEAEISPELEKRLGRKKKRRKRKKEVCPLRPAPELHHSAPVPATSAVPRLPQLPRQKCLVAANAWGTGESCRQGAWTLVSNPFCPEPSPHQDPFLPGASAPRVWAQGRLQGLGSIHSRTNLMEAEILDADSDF

## CC1=C2CC3C(CC=C4C[C@@H](O)CCC43C)C2CCC12O[C@@H]1CC(C)CN(CCNC(=O)CCCCCNC(=O)CCC3=[N+]4C(=Cc5c(C)cc(C)n5[B-]4(F)F)C=C3)C1C2C (stereo partly drawn) [BODIPY–cyclopamine]
[1]
  pKd: 6.3 ± 0.1

## CN[C@H]1CC[C@H](N(Cc2cccc(-c3ccncc3)c2)C(=O)c2sc3ccccc3c2Cl)CC1 [SAG1.3, 3-chloro-N-[trans-4-(methylamino)cyclohexyl]-N-[[3-(4-pyridinyl)phenyl]methyl]-benzo[b]thiophene-2-carboxamide dihydrochloride]
[2]
  EC50: 0.316 µM
[3]
  BRET Venus-mG13 recruitment to FZD4-Nluc: we did not detect any SAG1.3-induced Venus–mG13 recruitment
[4]
  EC50: A similar biphasic concentration–response curve was observed
[5]
  Ki: 2.51 µM

## c1ccc2c(Oc3nc(Nc4ccc(N5CCOCC5)cc4)c4ncn(C5CCCCC5)c4n3)cccc2c1 [purmorphamine, 9-cyclohexyl-N-[4-(4-morpholinyl)phenyl]-2-(1-naphthalenyloxy)-9H-purin-6-amine]
[6]
  EC50: concentration-dependent recruitment of Venus–mGsi to SMO–Rluc8 (d) and SNAP–FZD6–Rluc8
[7]
  EC50: concentration-dependent recruitment of Venus–mGsi to SMO–Rluc8 and SNAP–FZD6–Rluc8

B1: recombinant WNT-5A (ligand)
chain: IIGAQPLCSQLAGLSQGQKKLCHLYQDHMQYIGEGAKTGIKECQYQFRHRRWNCSTVDNTSVFGRVMQIGSRETAFTYAVSAAGVVNAMSRACREGELSTCGCSRAARPKDLPRDWLWGGCGDNIDYGYRFAKEFVDARERERIHAKGSYESARILMNLHNNEAGRRTVYNLADVACKCHGVSGSCSLKTCWLQLADFRKVGDALKEKYDSAAAMRLNSRGKLVQVNSRFNSPTTQDLVYIDPSPDYCVRNESTGSLGTQGRLCNKTSEGMDGCELMCCGRGYDQFKTVQTERCHCKFHWCCYVKCKKCTEIVDQFVCK
[8]
  decrease of the intramolecular FRET ratio (FlAsH/TFP) of the FZD6–FRET probe in HEK293 cells with increasing concentrations of WNT-5A; log10EC50 (log10 (ng ml^−1)): 2.2
  decrease of the intramolecular FRET ratio (FlAsH/TFP) of the FZD6–FRET probe in HEK293 cells, WNT-5A up to 1000 ng ml^−1; maximum efficacy: 4.9%
